Laboratory results published in patent publication US6713475B2, “Tricyclic benzodiazepines as vasopressin receptor antagonists” (Ortho-McNeil Pharmaceutical, Inc., priority 1999, dated 2004).
Structures can show the parent of a compound that is named as a salt. Values belong to the compound of their own block, whether it stands above or below them.

Tests used:
human V-1 receptor = molecular target: T1, human V-1 receptor (Homo sapiens, UniProt P37288); assay: In vitro recombinant vasopressin receptor binding assay (V1 Bdg), displacement of 3H-arginine vasopressin; conditions: for inhibition at 0.1 µM: read-out: V1 Bdg (% inh, 0.1 uM); for V1 Bdg % inh: 1 uM
T1 construct: expressed in transfected cells; host or cells: HEK-293
T1 sequence (P37288 whole entry): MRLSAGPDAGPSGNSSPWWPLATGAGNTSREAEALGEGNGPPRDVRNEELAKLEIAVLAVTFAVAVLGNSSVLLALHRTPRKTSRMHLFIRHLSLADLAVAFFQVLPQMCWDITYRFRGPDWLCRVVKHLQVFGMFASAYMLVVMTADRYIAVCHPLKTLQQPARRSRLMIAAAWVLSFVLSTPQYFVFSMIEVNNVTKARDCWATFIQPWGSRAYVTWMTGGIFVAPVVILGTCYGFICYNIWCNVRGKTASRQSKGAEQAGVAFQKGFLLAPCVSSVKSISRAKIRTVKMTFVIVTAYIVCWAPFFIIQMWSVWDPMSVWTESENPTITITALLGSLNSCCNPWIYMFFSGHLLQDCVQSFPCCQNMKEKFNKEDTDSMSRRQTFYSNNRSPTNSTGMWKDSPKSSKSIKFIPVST
Outline: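 Membranes from HEK-293 cells bearing cloned human V-1 receptor, incubated 1 h at room temperature with 0.65-0.75 nM 3H-arginine-8-vasopressin in pH 7.5 Tris/MgCl2/BSA buffer with protease inhibitors. Filtration onto GF/C, scintillation count. Non-specific binding with 1.25 uM arginine-8-vasopressin.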

[1] = test system: vasopressin-induced hypertension in anesthetized rats; assay: Reversal of vasopressin-induced hypertension in rats (intraduodenal dosing); assay type: in vivo, rat; conditions: I.D. dose 10 mg/kg, single dose into the duodenum, maximum percent reversal, monitored for 60 minutes
Method: Reversal of Vasopressin-Induced Hypertension in Rats
The anti-hypertensive activity of compounds was screened in an anesthetized model of vasopressin-induced hypertension. Male Long Evans, normotensive rats of between 350 and 450 g in body weight were anesthetized with pentobarbital (35 mg/kg, ip) and maintained throughout the procedure with an ip infusion of 10 mg/kg/hr. Arginine vasopressin was infused at 30 ng/kg/min, iv, to induce a stable hypertensive state (ca. 50 mmHg increase in mean arterial blood pressure). Compounds of interest were administered in an ascending dose fashion and the maximum decrease in mean arterial blood pressure was recorded. An ED50 was determined from the linear portion of the dose-response relationship for each animal.
This model was modified slightly to assess the bioavailability of compounds of interest. Rather than dosing the animals iv in an ascending dose fashion, a single dose per animal was administered directly into the duodenum. The anti-hypertensive effects were then monitored for 60 minutes and the maximum percent reversal was calculated.

V2 [2] = molecular target: T2, V2 (Homo sapiens, UniProt P30518); assay: V2 cAMP; assay type: cell-based
V2 [3] = molecular target: T2, V2; assay: In vitro recombinant vasopressin receptor binding assay (V2 Bdg), displacement of 3H-arginine vasopressin; set-up: expressed in transfected cells; host or cells: HEK-293; conditions: for IC50: membrane with cloned human V-2 receptor (HEK-293); for V2 Bdg % inh: 0.1 uM, printed in parentheses in place of IC50
Outline: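 Displacement of ³H-vasopressin from membranes of HEK-293 cells bearing cloned human V-2 receptor, incubated with test compound one hour at room temperature. Bound label was collected on PEI-soaked GF/C filters, washed with cold saline/0.05% Tween 20, and counted by scintillation.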

- inhibition at 0.1 µM (human V-1 receptor): 42%
Compound: O=C(Nc1ccc(C(=O)N2CC3CSCCN3Cc3ccccc32)cc1)c1ccccc1-c1ccccc1 (racemic) [Compound 3, (RS)-2-Phenyl-N-[4-(1,3,4,12a-tetrahydro-6H-[1,4]thiazino[4,3-a][1,4]-benzodiazepin-11(12H)-yl-carbonyl)phenyl]benzamide]
- BP Reduction (%) [1]: 100%

- melting point: 194 to 199 °C
Compound: O=C(Nc1ccc(C(=O)N2CC3CSCCN3Cc3cc(F)c(F)cc32)cc1)c1ccccc1-c1ccccc1 (racemic) (as salt: HCl) [Compound 35, (RS)-2-Phenyl-N-[4-(8,9-difluoro-1,3,4,12a-tetrahydro-6H-[1,4]thiazino[4,3-a][1,4]-benzodiazepin-11(12H)-yl-carbonyl)phenyl]benzamide]

- melting point: > 210 °C (dec.)
Compound: O=C(Nc1ccc(C(=O)N2C[C@H]3COCCN3Cc3ccccc32)c(Cl)c1)c1ccccc1-c1ccccc1 (as salt: HCl) (hydrate or solvate) [Compound 4, (S)-2-Phenyl-N-[3-chloro-4-(1,3,4,12a-tetrahydro-6H-[1,4]oxazino[4,3-a][1,4]-benzodiazepin-11(12H)-yl-carbonyl)phenyl]benzamide]

- melting point: 192 to 197 °C
Compound: O=C(Nc1ccc(C(=O)N2C[C@H]3CSCCN3Cc3ccccc32)c(Cl)c1)c1ccccc1-c1ccccc1 (as salt: HCl) [Compound 47, (S)-2-Phenyl-N-[3-chloro-4-(1,3,4,12a-tetrahydro-6H-[1,4]thiazino[4,3-a][1,4]-benzodiazepin-11(12H)-yl-carbonyl)phenyl]benzamide]

- melting point: 191 to 196 °C
Compound: Cc1ccc2c(c1)CN1CCSCC1CN2C(=O)c1ccc(NC(=O)c2ccccc2-c2ccccc2)cc1 (racemic) (as salt: HCl) [Compound 36, (RS)-2-Phenyl-N-[4-(8-methyl-1,3,4,12a-tetrahydro-6H-[1,4]thiazino[4,3-a][1,4]-benzodiazepin-11(12H)-yl-carbonyl)phenyl]benzamide]

- melting point: 185 to 188 °C (dec.)
Compound: O=C(Nc1ccc(C(=O)N2CC3COCCN3Cc3ccccc32)c(O)c1)c1ccccc1-c1ccccc1 (racemic) (as salt: HCl) [Compound 23, (RS)-2-Phenyl-N-[3-hydroxy-4-(1,3,4,12a-tetrahydro-6H-[1,4]oxazino[4,3-a][1,4]-benzodiazepin-11(12H)-yl-carbonyl)phenyl]benzamide]

- IC50 (V2 [2]): 11 nM
- IC50 (V2 [3]): 2 nM
Compound: O=C(Nc1ccc(C(=O)N2C[C@H]3COCCN3Cc3ccccc32)c(Cl)c1)c1ccccc1-c1ccccc1 [Compound 4, (S)-2-Phenyl-N-[3-chloro-4-(1,3,4,12a-tetrahydro-6H-[1,4]oxazino[4,3-a][1,4]-benzodiazepin-11(12H)-yl-carbonyl)phenyl]benzamide]
- BP Reduction (%) [1]: 100%

- melting point: 191 to 193 °C
Compound: O=C(Nc1ccc(C(=O)N2CC3CCCCN3Cc3ccccc32)cc1)c1ccccc1-c1ccccc1 (stereo not shown) (as salt: HCl) [Compound 1, 10-[4-[[(2-Biphenyl)carbonyl]amino]benzoyl]-10,11-dihydro-5H-piperidino[2,1-c][1,4]benzodiazepine]

- melting point: 188 to 195 °C (dec.)
Compound: O=C(Nc1ccc(C(=O)N2CC3COCCN3Cc3ccccc32)cc1O)c1ccccc1-c1ccccc1 (racemic) (as salt: HCl) [Compound 22, (RS)-2-Phenyl-N-[2-hydroxy-4-(1,3,4,12a-tetrahydro-6H-[1,4]oxazino[4,3-a][1,4]-benzodiazepin-11(12H)-yl-carbonyl)phenyl]benzamide]

- inhibition at 0.1 µM (human V-1 receptor): 31%
- IC50 (V2 [2]): 210 nM
- IC50 (V2 [3]): 9 nM
Compound: O=C(Nc1ccc(C(=O)N2CC3CCCCN3Cc3ccccc32)cc1)c1ccccc1-c1ccccc1 (stereo not shown) [Compound 1, 10-[4-[[(2-Biphenyl)carbonyl]amino]benzoyl]-10,11-dihydro-5H-piperidino[2,1-c][1,4]benzodiazepine]
- BP Reduction (%) [1]: 67%

- melting point: 177 to 180 °C
Compound: O=C(Nc1ccc(C(=O)N2CC3CSCCN3Cc3cc(F)ccc32)cc1)c1ccccc1-c1ccccc1 (racemic) (as salt: HCl) [Compound 32, (RS)-2-Phenyl-N-[4-(8-fluoro-1,3,4,12a-tetrahydro-6H-[1,4]thiazino[4,3-a][1,4]-benzodiazepin-11(12H)-yl-carbonyl)phenyl]benzamide]

Compound: Cc1ccccc1C(=O)Nc1ccc(C(=O)N2CC3CN(C)CCN3Cc3ccccc32)c(Cl)c1 (racemic) [Compound 61, (RS)-2-Methyl-N-[3-chloro-4-(1,3,4,12a-tetrahydro-2-methyl-6H-[1,4]pyrazino[4,3-a][1,4]-benzodiazepin-11(12H)-yl-carbonyl)phenyl]benzamide]
- V1 Bdg % inh (human V-1 receptor): (21%/1 uM)
- V2 Bdg % inh (V2 [3]): (28%/0.I uM)

- inhibition at 0.1 µM (human V-1 receptor): 29%
- IC50 (V2 [2]): 460 nM
- IC50 (V2 [3]): 14 nM
Compound: O=C(Nc1ccc(C(=O)N2CC3CC=CCN3Cc3ccccc32)cc1)c1ccccc1-c1ccccc1 (stereo not shown) [Compound 2, 10-[4-[[(2-Biphenyl)carbonyl]amino]benzoyl]-10,11-dihydro-5H-(tetrahydropyridino)[2,1-c][1,4]benzodiazepine]

Compound: (RS)-3,5-Dichloro-N-[3-chloro-4-(1,3,4,12a-tetrahydro-6H-[1,4]thiazino[4,3-a][1,4]-benzodiazepin-11(12H)-yl-carbonyl)phenyl]benzamide [Compound 43]
- V1 Bdg (% inh, 0.1 uM) (human V-1 receptor): 11%
- V2 Bdg % inh (V2 [3]): (47%/0.1 uM)

Compound: (RS)-2-(2-Fluoro-phenyl)-N-[4-(1,3,4,12a-tetrahydro-6H-[1,4]thiazino[4,3-a][1,4]-benzodiazepin-11(12H)-yl-carbonyl)phenyl]benzamide [Compound 45]
- V1 Bdg (% inh, 0.1 uM) (human V-1 receptor): 15%
- V2 Bdg % inh (V2 [3]): (69%/0.1 uM)

Compound: CN1CCN2Cc3ccccc3N(C(=O)c3ccc(NC(=O)c4ccccc4-c4ccccc4)cc3F)CC2C1 (racemic) [Compound 70, (RS)-2-Phenyl-N-[3-fluoro-4-(1,3,4,12a-tetrahydro-2-methyl-6H-[1,4]pyrazino[4,3-a][1,4]-benzodiazepin-11(12H)-yl-carbonyl)phenyl]benzamide]
- V1 Bdg % inh (human V-1 receptor): (9%/1 uM)
- V2 Bdg % inh (V2 [3]): (44%/0.1 uM)

- inhibition at 0.1 µM (human V-1 receptor): 69%
- IC50 (V2 [3]): 13 nM
Compound: COc1cc(C(=O)N2CC3COCCN3Cc3ccccc32)ccc1NC(=O)c1ccccc1-c1ccccc1 (racemic) [Compound 15, (RS)-2-Phenyl-N-[2-methoxy-4-(1,3,4,12a-tetrahydro-6H-[1,4]oxazino[4,3-a][1,4]-benzodiazepin-11(12H)-yl-carbonyl)phenyl]benzamide]

Compound: Cc1c(F)cccc1C(=O)Nc1ccc(C(=O)N2CC3CN(C)CCN3Cc3ccccc32)c(Cl)c1 (racemic) [Compound 102, (RS)-2-Methyl-3-fluoro-N-[3-chloro-4-(1,3,4,12a-tetrahydro-2-methyl-6H-[1,4]pyrazino[4,3-a][1,4]-benzodiazepin-11(12H)-yl-carbonyl)phenyl]benzamide]
- V1 Bdg % inh (human V-1 receptor): (12%/1 uM)
- V2 Bdg % inh (V2 [3]): (20%/0.1 uM)

Compound: CN1CCN2Cc3ccccc3N(C(=O)c3ccc(NC(=O)c4ccccc4-c4ccccc4)cc3)CC2C1 (racemic) [Compound 69, (RS)-2-Phenyl-N-[4-(1,3,4,12a-tetrahydro-2-methyl-6H-[1,4]pyrazino[4,3-a][1,4]-benzodiazepin-11(12H)-yl-carbonyl)phenyl]benzamide]
- V1 Bdg % inh (human V-1 receptor): (22%/1 uM)
- V2 Bdg % inh (V2 [3]): (38%/0.1 uM)
